Where a name gives a salt, the structure may show the parent alone.
Key:
B-Raf = B-Raf (Homo sapiens, UniProt P15056); test: B-Raf Accelerated MEK ATPase assay (BRAMA); format: biochemical; settings: BRAMA enzyme assay; class by pIC50; read-out: B-Raf Activity
Method in brief: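 B-Raf activity read as intrinsic MEK ATPase: catalytic activated RAF with non-phosphorylated MEK drives ADP formation, coupled through pyruvate kinase and lactate dehydrogenase to NADH oxidation, independent of ERK phosphorylation.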

EGFR = EGFR (Homo sapiens, UniProt P00533); test: EGFR kinase autophosphorylation assay (peptide phosphorylation, HTRF); format: biochemical; settings: 0.8 nM EGFR, class by pIC50
EGFR, sequence (P00533 25-1210): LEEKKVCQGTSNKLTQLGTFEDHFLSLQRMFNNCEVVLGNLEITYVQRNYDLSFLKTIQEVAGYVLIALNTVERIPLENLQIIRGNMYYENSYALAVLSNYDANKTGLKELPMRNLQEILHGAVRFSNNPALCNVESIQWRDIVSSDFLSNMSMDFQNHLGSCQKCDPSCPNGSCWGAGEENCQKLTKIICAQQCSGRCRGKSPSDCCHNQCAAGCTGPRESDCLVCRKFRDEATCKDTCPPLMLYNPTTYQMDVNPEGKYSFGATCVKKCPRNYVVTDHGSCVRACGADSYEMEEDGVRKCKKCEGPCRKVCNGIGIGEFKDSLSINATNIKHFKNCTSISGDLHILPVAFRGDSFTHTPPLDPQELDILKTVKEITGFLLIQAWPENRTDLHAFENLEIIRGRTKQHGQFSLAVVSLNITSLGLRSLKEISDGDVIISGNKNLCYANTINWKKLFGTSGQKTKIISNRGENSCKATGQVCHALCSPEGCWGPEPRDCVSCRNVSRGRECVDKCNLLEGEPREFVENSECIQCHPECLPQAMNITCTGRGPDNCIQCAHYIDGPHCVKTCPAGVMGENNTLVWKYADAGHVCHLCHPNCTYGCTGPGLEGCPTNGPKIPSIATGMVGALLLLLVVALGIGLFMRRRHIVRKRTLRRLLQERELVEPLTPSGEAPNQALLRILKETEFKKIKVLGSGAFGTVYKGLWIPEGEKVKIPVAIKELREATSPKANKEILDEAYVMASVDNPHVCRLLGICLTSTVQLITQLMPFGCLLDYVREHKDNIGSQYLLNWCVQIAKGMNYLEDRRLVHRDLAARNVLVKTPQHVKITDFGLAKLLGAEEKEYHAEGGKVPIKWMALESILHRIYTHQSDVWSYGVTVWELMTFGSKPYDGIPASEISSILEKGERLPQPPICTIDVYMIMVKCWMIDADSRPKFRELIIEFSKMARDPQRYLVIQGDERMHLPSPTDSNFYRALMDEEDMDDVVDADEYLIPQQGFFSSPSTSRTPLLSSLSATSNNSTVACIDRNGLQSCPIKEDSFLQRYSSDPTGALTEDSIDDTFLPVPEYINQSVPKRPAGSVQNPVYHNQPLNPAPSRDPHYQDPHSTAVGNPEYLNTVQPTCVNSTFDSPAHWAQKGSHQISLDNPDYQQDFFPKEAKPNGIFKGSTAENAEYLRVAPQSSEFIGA
Procedure: (§1) A selection of compounds of the present invention were tested for inhibitory activity against EGFR and ErbB2 kinases in autophosphorylation assays.
(§2) The method measures the ability of the isolated enzyme to catalyse the transfer of the gamma-phosphate from ATP onto the tyrosine residue of a biotinylated synthetic peptide referenced “Peptide C” in Brignola, P. S., et al, (2002) J. Biol. Chem. 277(2):1576-1585. The extent of tyrosine phosphorylation was measured using an anti-phosphotyrosine antibody, and quantified by homogenous time-resolved fluorescence (HTRF).
(§3) Reactions were performed in black 384-well polystyrene flat-bottom plates in a final volume of 20 ul. Assays were performed by adding 10 μl of each of the following solutions, substrate Mix and enzyme mix: The Substrate mix contained 100 mM 3-[N-morpholino]propanesulfonic acid (MOPS) (pH 7.5), 2 mM MnCl2, 20 μM ATP, 0.01% Tween-20, 0.1 mg/mL (BSA), 0.8 uM peptide substrate, and 1 mM dithiothreitol. The enzyme mix contained 100 mM MOPS (pH7.5); 0.01% Tween-20; 0.1 mg/mL BSA, and either 0.8 nM EGFR, 10 nM ErbB2, or 1 nM ErbB4
(§4) The enzyme mix was added to the compound plates and the plates were incubated at 20° C. for 1 hour. The reactions were allowed to proceed for 90 minutes at 20° C. The reactions were then terminated by the addition of 20 μl 100 mM EDTA to each well. 40 μl/well of HTRF detection mix were added to the assay plates. The final concentrations of the detection reagents were: 100 mM HEPES (pH7.5), 0.1 mg/mL BSA, 15 nM streptavidin-labeled allophycocyanin (PerkinElmer), and 1 nM europium-labeled anti-phosphotyrosine antibody (PerkinElmer). Assay plates were left unsealed and were counted in a Wallac Multilabel Counter 1420 (PerkinElmer).
(§5) Compounds under analysis were dissolved in Me2SO to 1.0 mM and serially diluted 1 to 3 with Me2SO through twelve dilutions. 1 μl of each concentration was transferred to the corresponding well of an assay plate. This creates a final compound concentration range from 0.00027 to 47.6 μM.
(§6) The data for dose responses were plotted as % Inhibition calculated with the data reduction formula 100*(1−(U1−C2)/(C1−C2)) versus concentration of compound where U is the unknown value, C1 is the average control value obtained for 4.76% DMSO, and C2 is the average control value obtained for 0.035 M EDTA. Data were fitted with a curve described by:
(§7) where Vmax is the upper asymptote, Y2 is the Y intercept, and K is the IC50. The results for each compound were recorded as pIC50s, calculated as follows: […]
(§8) In the following table: • “+” indicates no pIC50 measurement greater than 6 against EGFR or ErbB2, • “++” indicates at least one pIC50 measurement greater than 6 against EGFR or ErbB2 but no measurement greater than pIC50 of 7; and • “+++” indicates at least one pIC50 measurement of greater than 7 against EGFR or ErbB2.

ErbB2 = ErbB2 (Homo sapiens, UniProt P04626); test: ErbB2 kinase autophosphorylation assay (peptide phosphorylation, HTRF); format: biochemical; settings: 10 nM ErbB2, HTRF; class by pIC50
ErbB2, sequence (P04626 23-1255): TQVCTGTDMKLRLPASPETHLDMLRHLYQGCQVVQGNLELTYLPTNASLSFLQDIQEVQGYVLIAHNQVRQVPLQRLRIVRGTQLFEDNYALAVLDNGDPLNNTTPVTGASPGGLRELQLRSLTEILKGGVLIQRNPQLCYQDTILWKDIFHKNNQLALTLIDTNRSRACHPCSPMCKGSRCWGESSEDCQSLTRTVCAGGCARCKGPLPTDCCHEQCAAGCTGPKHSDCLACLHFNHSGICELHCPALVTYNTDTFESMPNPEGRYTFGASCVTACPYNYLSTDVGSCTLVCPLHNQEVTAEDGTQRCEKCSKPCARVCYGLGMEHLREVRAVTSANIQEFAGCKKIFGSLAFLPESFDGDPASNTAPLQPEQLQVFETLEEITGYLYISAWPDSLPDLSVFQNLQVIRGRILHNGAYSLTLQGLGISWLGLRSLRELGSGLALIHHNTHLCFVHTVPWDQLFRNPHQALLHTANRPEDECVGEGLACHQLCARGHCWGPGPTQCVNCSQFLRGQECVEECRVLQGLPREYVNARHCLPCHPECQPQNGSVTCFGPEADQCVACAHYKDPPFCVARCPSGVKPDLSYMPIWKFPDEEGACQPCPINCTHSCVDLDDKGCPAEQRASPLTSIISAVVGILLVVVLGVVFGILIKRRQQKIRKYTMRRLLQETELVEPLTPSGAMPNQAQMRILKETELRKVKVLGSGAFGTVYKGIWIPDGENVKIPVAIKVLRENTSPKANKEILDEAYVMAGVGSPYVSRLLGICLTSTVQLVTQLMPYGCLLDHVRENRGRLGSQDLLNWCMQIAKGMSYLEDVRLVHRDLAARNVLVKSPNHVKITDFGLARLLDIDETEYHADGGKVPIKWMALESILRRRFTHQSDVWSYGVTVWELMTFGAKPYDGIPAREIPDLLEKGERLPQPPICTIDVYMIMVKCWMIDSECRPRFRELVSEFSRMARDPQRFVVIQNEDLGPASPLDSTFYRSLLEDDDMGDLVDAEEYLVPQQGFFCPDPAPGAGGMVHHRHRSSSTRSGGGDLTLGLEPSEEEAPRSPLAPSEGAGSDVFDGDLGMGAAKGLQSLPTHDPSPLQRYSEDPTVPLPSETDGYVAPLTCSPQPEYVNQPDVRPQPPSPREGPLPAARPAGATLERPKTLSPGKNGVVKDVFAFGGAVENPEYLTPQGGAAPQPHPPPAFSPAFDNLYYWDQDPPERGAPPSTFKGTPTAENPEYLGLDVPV
Procedure: as §1, §2, §3, §4, §5, §6, §7, §8

A375P tumor cells = test: Cell growth inhibition assay (CellTiter-Glo), A375P; settings: Homo sapiens, 72 h, read-out: Activity in A375P Tumor Cells;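 further: total ATP luminescence used as proxy for cell number, serial threefold compound dilutions at 0.2% DMSO, growth inhibition expressed versus DMSO vehicle-treated wells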
HT-29 tumor cells = test: Cell growth inhibition assay (CellTiter-Glo), HT-29; settings: Homo sapiens, HT-29, 72 h, read-out: Activity in HT-29 Tumor Cells;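 further: ATP content read by luminescence as proxy for cell number, growth inhibition versus DMSO vehicle wells, 0.2% DMSO final, nine serial threefold compound dilutions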
Procedure: Cell Growth Inhibition Assays Human colon tumor cells (Colo205) were cultured in RPMI (Mediatech 50-020-PB) containing 10% FBS and 1% penicillin-streptomycin. […] Human melanoma cancer cells (A375-F11S) were cultured in RPMI (Mediatech 50-020-PB) containing 10% FBS, 1% sodium pyruvate, and 1% penicillin-streptomycin. Human colon cancer cells (HT-29) were cultured in high glucose DMEM (Mediatech 50-013-PB) containing 10% FBS and 1% penicillin-streptomycin. Human melanoma cancer cells (SK-MEL-3) were cultured in McCoy's 5A (50-025-PB) containing 15% FBS, and 1% penicillin-streptomycin. All cell lines were maintained at 37° C. in a humidified 5% CO2, 95% air incubator.
The next day, compounds were diluted as follows: For 96-well assays, 13.5 μl of compound in DMSO were diluted using nine (9) serial 1:3 dilutions of 4.5 μl in 9 μl of DMSO. Medium (270 μl/well of RPMI with 10% FBS and 1% penicillin-streptomycin) was added to the plates. Aliquots (7 μl) were added to cells in the final assay giving a final DMSO concentration of 0.2%. For 384-well assays, 15 μl of compound in DMSO were diluted using nine (9) serial 1:3 dilutions of 5 μl in 10 μl of DMSO, followed by a further dilution of 5 μl of compound with 95 μl of medium, of which 2 μl are added to cells in the final assay giving a final DMSO concentration of 0.2%. Cells were incubated at 37° C., 5% CO2 for 3 days.
Total ATP was measured (as a surrogate estimate of cell number) using CellTiter-Glo® (Promega G7571) reagent. Briefly, plates were removed from the incubator and allowed to equilibrate to room temperature for 30 minutes. CellTiter-Glo® (25 μl or 55 μl for 384-well or 96-well assays, respectively) reagent was added to each well and plates were shaken on an orbital plate shaker for 2 minutes. Plates were incubated without shaking for a further 30 minutes and read on an LJL Analyst GT reader in luminometer mode with an integration time of 0.5 seconds per well. Percent inhibition of cell growth was calculated relative to DMSO vehicle-treated control wells.

Colo205 tumor cells = test: Cell growth inhibition assay (CellTiter-Glo), Colo205; settings: Homo sapiens, COLO 205, 72 h, read-out: Activity in Colo205 Tumor Cells;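 further: growth measured via total ATP luminescence (CellTiter-Glo) as a proxy for cell number, inhibition expressed against DMSO-treated control wells, 3-day exposure at 0.2% final DMSO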
SK-MEL-3 tumor cells = test: Cell growth inhibition assay (CellTiter-Glo), SK-MEL-3; settings: Homo sapiens, SK-MEL3, 72 h, read-out: Activity in SK-MEL-3 Tumor Cells;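 further: human melanoma cells grown with compound for 3 days in 0.2% DMSO, total ATP read by luminescence as proxy for cell number, growth inhibition versus DMSO-treated wells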
SK-MEL-28 tumor cells = test: Cell growth inhibition assay (CellTiter-Glo), SK-MEL-28; settings: Homo sapiens, SK-MEL-28, 72 h, read-out: Activity in SK-MEL-28 Tumor Cells;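 further: luminescent total ATP as a proxy for cell number, threefold serial dilutions at 0.2% DMSO, percent growth inhibition versus DMSO vehicle control wells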

B-Raf, sequence (P15056 whole entry): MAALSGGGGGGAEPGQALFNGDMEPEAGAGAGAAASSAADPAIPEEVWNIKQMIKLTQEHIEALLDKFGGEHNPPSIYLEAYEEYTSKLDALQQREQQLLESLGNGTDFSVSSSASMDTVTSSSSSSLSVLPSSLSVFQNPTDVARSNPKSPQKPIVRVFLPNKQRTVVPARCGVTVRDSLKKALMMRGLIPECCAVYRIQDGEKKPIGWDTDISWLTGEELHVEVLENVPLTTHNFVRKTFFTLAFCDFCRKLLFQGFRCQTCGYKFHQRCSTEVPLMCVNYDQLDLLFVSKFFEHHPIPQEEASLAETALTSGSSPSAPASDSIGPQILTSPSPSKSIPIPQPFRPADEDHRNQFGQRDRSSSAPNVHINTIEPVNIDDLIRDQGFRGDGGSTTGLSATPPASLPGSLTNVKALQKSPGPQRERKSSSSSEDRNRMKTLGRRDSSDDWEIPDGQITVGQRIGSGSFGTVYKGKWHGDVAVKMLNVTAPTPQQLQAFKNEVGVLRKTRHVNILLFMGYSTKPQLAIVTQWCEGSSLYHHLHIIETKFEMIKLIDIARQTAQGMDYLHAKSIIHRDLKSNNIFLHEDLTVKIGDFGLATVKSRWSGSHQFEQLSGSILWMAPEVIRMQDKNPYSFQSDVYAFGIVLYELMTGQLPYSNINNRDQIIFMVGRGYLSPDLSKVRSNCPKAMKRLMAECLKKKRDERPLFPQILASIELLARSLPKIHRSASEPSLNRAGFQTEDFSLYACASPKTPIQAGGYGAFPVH

| SMILES | IC50 (B-Raf) | IC50 (EGFR) | IC50 (ErbB2) | IC50 (A375P tumor cells) | IC50 (HT-29 tumor cells) | IC50 (Colo205 tumor cells) | IC50 (SK-MEL-3 tumor cells) | IC50 (SK-MEL-28 tumor cells) |
| --- | --- | --- | --- | --- | --- | --- | --- | --- |
| CCNc1nc(-c2cc(C)cc(OC)c2)c(-c2ccnc(Nc3ccc(N4CCN(C(C)=O)CC4)nc3)n2)s1 [Example 36, N-[6-(4-Acetyl-1-piperazinyl)-3-pyridinyl]-4-{2-(ethylamino)-4-[3-methyl-5-(methyloxy)phenyl]-1,3-thiazol-5-yl}-2-pyrimidinamine] | < 100 nM | > 1000 nM | > 1000 nM | < 500 nM | < 500 nM | < 500 nM | < 500 nM | < 500 nM |
| CCNc1nc(-c2cc(C)cc(OC)c2)c(-c2ccnc(Nc3ccc(N4CCN(C(=O)COC)CC4)nc3)n2)s1 [Example 37, 4-{2-(Ethylamino)-4-[3-methyl-5-(methyloxy)phenyl]-1,3-thiazol-5-yl}-N-(6-{4-[(methyloxy)acetyl]-1-piperazinyl}-3-pyridinyl)-2-pyrimidinamine] | < 100 nM | > 1000 nM | > 1000 nM | < 500 nM | < 500 nM | < 500 nM | < 500 nM | < 500 nM |
| CCc1nc(-c2ccc(CO)c(OC)c2)c(-c2ccnc(Nc3ccc(N4CCN(C(C)=O)CC4)nc3)n2)s1 [Example 55] | < 100 nM | > 1000 nM | > 1000 nM | < 500 nM | < 500 nM | < 500 nM | < 500 nM | < 500 nM |
| COc1cc(C)cc(-c2nc(C(C)C)sc2-c2ccnc(Nc3ccc(N4CCN(C(C)=O)CC4)nc3)n2)c1 [Example 63, N-[6-(4-Acetyl-1-piperazinyl)-3-pyridinyl]-4-{2-(1-methylethyl)-4-[3-methyl-5-(methyloxy)phenyl]-1,3-thiazol-5-yl}-2-pyrimidinamine] | < 100 nM | > 1000 nM | > 1000 nM | < 500 nM | < 500 nM | < 500 nM | < 500 nM | < 500 nM |
| COc1cc(C)cc(-c2nc(CNS(C)(=O)=O)sc2-c2ccnc(Nc3ccc(N4CCN(C(C)=O)CC4)nc3)n2)c1 [Example 64, N-({5-(2-{[6-(4-Acetyl-1-piperazinyl)-3-pyridinyl]amino}-4-pyrimidinyl)-4-[3-methyl-5-(methyloxy)phenyl]-1,3-thiazol-2-yl}methyl)methanesulfonamide] | < 100 nM | > 1000 nM | > 1000 nM | < 500 nM | < 500 nM | < 500 nM | < 500 nM | < 500 nM |
| CCc1nc(-c2cc(O)cc(OC)c2)c(-c2ccnc(Nc3ccc(OC4CCN(CCS(C)(=O)=O)CC4)c(F)c3)n2)s1 [Example 74, trifluoroacetic acid salt] | < 100 nM | > 1000 nM | > 1000 nM | < 500 nM | < 500 nM | < 500 nM | < 500 nM | < 500 nM |
| CCNc1nc(-c2cc(OC)cc(OC)c2)c(-c2ccnc(Nc3ccc(OC4CCN(CCS(C)(=O)=O)CC4)c(F)c3)n2)o1 [Example 82] | < 100 nM | > 1000 nM | > 1000 nM | > 5000 nM | < 500 nM | < 500 nM | < 500 nM | 500 to 5000 nM |
| CCNc1nc(-c2cc(OC)cc(OC)c2)c(-c2ccnc(Nc3ccc(OC4CCN(CCS(C)(=O)=O)CC4)c(C)c3)n2)o1 [Example 87] | < 100 nM | > 1000 nM | > 1000 nM | 500 to 5000 nM | 500 to 5000 nM | 500 to 5000 nM | 500 to 5000 nM | 500 to 5000 nM |

The remaining lines, values ahead:

| IC50 (B-Raf) | IC50 (EGFR) | IC50 (ErbB2) | IC50 (A375P tumor cells) | IC50 (HT-29 tumor cells) | IC50 (Colo205 tumor cells) | IC50 (SK-MEL-3 tumor cells) | IC50 (SK-MEL-28 tumor cells) | SMILES |
| --- | --- | --- | --- | --- | --- | --- | --- | --- |
| < 100 nM | 100 to 1000 nM | > 1000 nM | < 500 nM | < 500 nM | < 500 nM | < 500 nM | < 500 nM | CCNc1nc(-c2cccc(OC)c2)c(-c2ccnc(Nc3ccc(OC4CCN(CCS(C)(=O)=O)CC4)c(F)c3)n2)s1 [Example 41, 4-{2-(Ethylamino)-4-[3-(methyloxy)phenyl]-1,3-thiazol-5-yl}-N-[3-fluoro-4-({1-[2-(methylsulfonyl)ethyl]-4-piperidinyl}oxy)phenyl]-2-pyrimidinamine] |
| < 100 nM | < 100 nM | < 100 nM | < 500 nM | < 500 nM | 500 to 5000 nM | < 500 nM | > 5000 nM | COCCNc1nc(-c2cccc(OC)c2)c(-c2ccnc(Nc3ccc(N4CCOCC4)c(Cl)c3)n2)s1 [Example 43, N-[3-Chloro-4-(4-morpholinyl)phenyl]-4-{2-{[2-(methyloxy)ethyl]amino}-4-[3-(methyloxy)phenyl]-1,3-thiazol-5-yl}-2-pyrimidinamine hydrochloride] |
| < 100 nM | < 100 nM | < 100 nM | < 500 nM | < 500 nM | < 500 nM | < 500 nM | < 500 nM | CCNc1nc(-c2cccc(O)c2)c(-c2ccnc(Nc3ccc(OCCN4CCCC4)c(Cl)c3)n2)s1 [Example 44] |
| < 100 nM | < 100 nM | < 100 nM | < 500 nM | < 500 nM | < 500 nM | < 500 nM | < 500 nM | CCNc1nc(-c2cccc(Cl)c2)c(-c2ccnc(Nc3ccc(OCCN(C)C)c(Cl)c3)n2)s1 [Example 46, N-(3-Chloro-4-{[2-(dimethylamino)ethyl]oxy}phenyl)-4-[4-(3-chlorophenyl)-2-(ethylamino)-1,3-thiazol-5-yl]-2-pyrimidinamine] |
| < 100 nM | > 1000 nM | > 1000 nM | < 500 nM | < 500 nM | < 500 nM | < 500 nM | 500 to 5000 nM | COc1cc(C)cc(-c2nc(C(C)C)sc2-c2ccnc(Nc3ccc(N4CCOCC4)nc3)n2)c1 [Example 61, 4-{2-(1-Methylethyl)-4-[3-methyl-5-(methyloxy)phenyl]-1,3-thiazol-5-yl}-N-[6-(4-morpholinyl)-3-pyridinyl]-2-pyrimidinamine] |
| < 100 nM | < 100 nM | < 100 nM | < 500 nM | < 500 nM | < 500 nM | < 500 nM | 500 to 5000 nM | CCNc1nc(-c2cccc(OC)c2)c(-c2ccnc(Nc3ccc(OCCN4CCCC4)c(F)c3)n2)s1 [Example 72, 4-{2-(Ethylamino)-4-[3-(methyloxy)phenyl]-1,3-thiazol-5-yl}-N-(3-fluoro-4-{[2-(1-pyrrolidinyl)ethyl]oxy}phenyl)-2-pyrimidinamine] |
| < 100 nM | < 100 nM | < 100 nM | < 500 nM | < 500 nM | < 500 nM | < 500 nM | 500 to 5000 nM | CCNc1nc(-c2cccc(OC)c2)c(-c2ccnc(Nc3ccc(OCCN(C)C)c(C)c3)n2)s1 [Example 77, N-(4-{[2-(Dimethylamino)ethyl]oxy}-3-methylphenyl)-4-{2-(ethylamino)-4-[3-(methyloxy)phenyl]-1,3-thiazol-5-yl}-2-pyrimidinamine] |

From patent US20110190280A1, “Thiazole And Oxazole Kinase Inhibitors” (priority 2007, published 2011)
